According to ChEMBL document CHEMBL5500360, “Discovery of N-(4-((6-(3,5- Dimethoxyphenyl)-9H-purine derivatives as irreversible covalent FGFR inhibitors” (Eur J Med Chem, 2024):
Activity calls are given as the source filed them. The calls are words filed in the database; no cut-off is given here.

How the values were obtained:
[1] = test system: MDA-MB-231; test: Induction of apoptosis in human MDA-MB-231 cells assessed as apoptotic cells at 5 uM incubated for 24 hrs by Annexin V-FITC/PI staining based flow cytometric analysis relative to control; assay type: functional
[2] = test system: MDA-MB-231; test: Induction of apoptosis in human MDA-MB-231 cells assessed as viable cells at 5 uM incubated for 24 hrs by Annexin V-FITC/PI staining based flow cytometric analysis (reference value: 99.645%); assay type: functional; details: read-out: Activity
[3] = test system: MDA-MB-435; test: cells; details: Homo sapiens, MDA-MB-435, 72 h
Description: Antiproliferative activity against human MDA-MB-435 cells assessed as inhibition of cell growth incubated for 72 hrs by MTT assay

[4] = test system: MDA-MB-231; test: Inhibition of cell migration in human MDA-MB-231 cells at 2.5 uM incubated for 12 hrs by cell scratch assay; assay type: functional, cell-based
[5] = test system: MDA-MB-231; test: Cell cycle arrest in human MDA-MB-231 cells assessed as accumulation of G2-M phase cells at 5 uM incubated for 24 hrs by […]PI staining based flow cytometric analysis (reference value: 16.88%); assay type: functional
[6] = test system: MDA-MB-231; test: Antitumor activity against human MDA-MB-231 cells xenografted in female BALB/c athymic nude mouse assessed as tumor growth inhibition at 10 mg/kg, po administered once a day via gavage for 21 days relative to control; assay type: functional; details: MDA-MB-231, 504 h, time 21 day, read-out: TGI
[7] = test system: MDA-MB-231; test: Cell cycle arrest in human MDA-MB-231 cells assessed as accumulation of G0-G1 phase cells at 5 uM incubated for 24 hrs by […]PI staining based flow cytometric analysis (reference value: 41.83%); assay type: functional
[8] = test system: HepG2; test: cells; details: Homo sapiens, HepG2, 72 h
[9] = test system: MDA-MB-231; test: Induction of apoptosis in human MDA-MB-231 cells assessed as late apoptotic cells at 5 uM incubated for 24 hrs by Annexin V-FITC/PI staining based flow cytometric analysis (reference value: 0.161 %); assay type: functional
[10] = test system: KYSE-150 cell line; test: cells; details: Homo sapiens, KYSE-150, 72 h
Description: Antiproliferative activity against human KYSE-150 cells assessed as inhibition of cell growth incubated for 72 hrs by MTT assay

[11] = test system: MDA-MB-231; test: Induction of ROS production in human MDA-MB-231 cells at 5 uM incubated for 12 hrs by flow cytometry based confocal microscopic analysis; assay type: functional, cell-based
[12] = test system: MDA-MB-231; test: Induction of apoptosis in human MDA-MB-231 cells assessed as early apoptotic cells at 5 uM incubated for 24 hrs by Annexin V-FITC/PI staining based flow cytometric analysis (reference value: 0.131 %); assay type: functional
[13] = test system: MDA-MB-231; test: Induction of apoptosis in human MDA-MB-231 cells assessed as necrotic cells at 5 uM incubated for 24 hrs by Annexin V-FITC/PI staining based flow cytometric analysis (reference value: 0.063 %); assay type: functional
[14] = in vitro; details: human, HUVEC cells
Description: Cytotoxicity against HUVEC cells assessed as inhibition of cell growth incubated for 72 hrs by MTT assay

[15] = test system: MDA-MB-231; test: Cell cycle arrest in human MDA-MB-231 cells assessed as accumulation of S phase cells at 5 uM incubated for 24 hrs by […]PI staining based flow cytometric analysis (reference value: 41.29%); assay type: functional
[16] = test system: MDA-MB-231; test: cells; details: Homo sapiens, MDA-MB-231, 72 h

For `COc1cc(CCc2cc(NC(=O)c3ccc(N4C[C@@H](C)N[C@@H](C)C4)cc3)n[nH]2)cc(OC)c1` [FEXAGRATINIB], the Activity [1] was 37.3%, the viability at 5 µM [2] was 58% and the IC50 [3] was 21.6 µM. For the same compound, the inhibition [4] was “Active”, the Activity [5] was 14.77% and the inhibition in vivo at 10 mg/kg [6] was 52.6%. It also gave an Activity [7] of 58.92%, an IC50 [8] of 3.13 µM and an Activity [9] of 10.3%. The IC50 [10] was 8.92 µM, the Activity [11] was “Active” and the Activity [12] was 29%. For the same compound, the Activity [13] was 2.72%, the IC50 at 72 h [14] was 38 µM and the Activity [15] was 26.31%. It also gave an IC50 [16] of 7.19 µM.
